“And” between values parts separate entries of the source, which are not always exact repeats. Equal values may be shown once.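 Assay format: 96-well plates, 48-hour exposure. GI50 = concentration required for 50% inhibition of growth. At the TGI there is no net growth.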

What all share (assay): NCI anticancer screen, dose series, 48 h
Assay [1] deals with A498 renal.
Assay [2] deals with MDA-MB-435.
In assay [3] the test system is SK-MEL-28 melanoma.
Assay [4] concerns HCC-2998 colon.
The test system of assay [5] is OVCAR-5 ovarian.
For assay [6], the system named is SNB-19 CNS.
Assay [7] has as its system PC-3 prostate.
Assay [8] relates to OVCAR-3 ovarian.
In assay [9] the test system is NCI/ADR-RES ovarian.
Assay [10] deals with SF-295 CNS.

Regarding `Cn1c(O)c(C(=O)Nc2ccc([N+](=O)[O-])cc2)c(=O)n(C)c1=S`, the TGI in assay [1] amounted to 2.17 µM; in [2], 4.95 µM; in assay [3], 3.68 µM; in assay [4] it was 7.23 µM; in [5], 16.4 µM; in assay [6] it was 10.1 µM. The TGI turned out to be 5.34 µM in [7], 8.02 µM in [8], 11 µM in assay [9] and 4.86 µM in [10].
As for `COc1ccc(C(Nc2ncccn2)c2cc3c(cc2O)OCO3)cc1` (stereo unspecified), the TGI in [1] was > 100 µM; in assay [2] it was 50.6 µM; in assay [3] it was 52.4 µM; in assay [4], 47.4 µM; in [5] it was 69.6 µM; in assay [6], 31.1 µM. Besides, the TGI in assay [7] is 43.2 µM; in assay [8], 32.7 µM; in assay [9], > 100 µM; in assay [10] it was > 100 µM.
Turning to `CN(Cc1cnc2nc(N)nc(N)c2n1)c1ccc(C(=O)NC(CCC(=O)O)C(=O)O)cc1` (stereo unspecified), the TGI in assay [1], in assay [2], in assay [3], in assay [4], in assay [5] and in assay [6] was > 100 µM in each case. Also, the TGI in assay [7] is > 100 µM; in assay [8] it was > 100 µM; in assay [9] it was > 100 µM; in assay [10] it was 36.5 µM. The GI50 in assay [2] was 47.8 nM; in assay [3], 21 µM; in [4] it was 0.0992 µM; in assay [5], 0.668 µM; in assay [7], 2.56 µM; in assay [8] it was 1.23 µM. Besides, the GI50 was 0.0722 µM in [9] and 0.175 µM in assay [10].
On to `COc1ccc2c3c(c(OCCCN(C)C)nc2c1)-c1ccc(Cl)cc1C3=O`, for which the GI50 was 5.66 µM in assay [1]; 5530 nM in [2]; 12.1 µM in assay [3]; 5.19 µM in assay [4]; 9.66 µM in assay [5]; 8.81 µM in assay [6]. Further, the GI50 in [7] is 4.72 µM; in assay [8], 3.55 µM; in [9], 4.79 µM; in assay [10], 10.6 µM. Also, the TGI in [1] was 16.5 µM; in [2], 18.7 µM; in [3] it was 27 µM; in assay [4], 21 µM; in assay [5] it was 22.9 µM; in assay [6], 28.2 µM. Further, the TGI in assay [7] came out at 19.4 µM; in [8], 16.7 µM; in [9], 26 µM; in assay [10] it was 23.8 µM.
In the case of `Cn1cnc([N+](=O)[O-])c1Sc1ncnc2c1ncn2C1OC(CO)C(O)C1O` (stereo unspecified), the GI50 is 2.36 µM in assay [1]; 3600 nM in assay [2]; 72.2 µM in [3]; 5.02 µM in assay [4]; 42 µM in assay [5]; > 100 µM in assay [6]. Further, the GI50 in [7] was 8.66 µM; in assay [8], 3.93 µM; in [9] it was 4.84 µM; in assay [10], 2.95 µM. In addition, the TGI in assay [1], in [2], in assay [3], in assay [4], in assay [5] and in assay [6] was > 100 µM each time. For the same compound, the TGI in assay [7], in assay [8], in [9] and in assay [10] was > 100 µM each time.
In the case of `CN(C)c1ccc(/C=C/c2ccnc3ccccc23)cc1`, the GI50 is 4.03 µM in assay [1]; 1360 nM in [2]; 9.01 µM in assay [3]; 5.95 µM in assay [4]; 6.9 µM in assay [5]; 6.56 µM in [6]. The GI50 is 3.28 µM in [7], 2.71 µM in assay [8], 2.26 µM in [9] and 3.43 µM in [10]. Moreover, the TGI in assay [1] is > 100 µM and 24.8 µM; in assay [2], 72.6 µM and 20.7 µM; in assay [3], > 100 µM; in assay [4], > 100 µM and 33 µM; in assay [5], > 100 µM and 49.6 µM; in assay [6] it was > 100 µM. The TGI in assay [7] was > 100 µM and 46.6 µM; in assay [10] it was > 100 µM and 21.2 µM.
As for `FC(F)(F)c1ccc(-c2cnc(Br)nc2NC2CCCCCC2)cc1`, the GI50 in assay [1] is 40 µM; in assay [2], > 100000 nM; in assay [3] it was > 100 µM; in assay [4] it was > 100 µM; in assay [5], > 100 µM; in assay [6], > 100 µM. In addition, the GI50 was 35.4 µM in assay [7], 70.8 µM in assay [8], 88.9 µM in [9] and 69.6 µM in [10]. Further, the TGI in assay [1], in assay [2], in [3], in assay [4], in assay [5] and in assay [6] was > 100 µM throughout. In addition, the TGI in assay [7], in assay [8], in assay [9] and in assay [10] was > 100 µM throughout.
For `c1ccc(-c2nc(N3CCNCC3)c3nc(-c4ccccc4)oc3n2)cc1`, the GI50 in assay [1] is 1.42 µM; in [2] it was 1790 nM; in [3], 1.81 µM; in [4], 1.81 µM; in assay [5], 1.7 µM; in [6] it was 1.74 µM. In addition, the GI50 is 1.66 µM in assay [7], 1.78 µM in [8], 1.87 µM in assay [9] and 1.86 µM in [10]. Moreover, the TGI in assay [1] is 2.76 µM; in assay [2], 3.22 µM; in assay [3] it was 3.29 µM; in assay [4] it was 3.49 µM; in assay [5], 3.15 µM; in [6], 3.34 µM. The TGI in assay [7] was 3.24 µM; in assay [8] it was 3.25 µM; in assay [9], 3.69 µM; in assay [10], 3.38 µM.

Source of the values: PubChem BioAssay (NCI).
